According to ChEMBL document CHEMBL5360641, “4'-Ethynyl-2'-deoxy-2'-β-fluoro-2-fluoroadenosine: A Highly Potent and Orally Available Clinical Candidate for the Treatment of HIV-1 Infection” (J Med Chem, 2023):

Key:
[1] = Cytotoxicity against HEK293T cells assessed as reduction in cell viability by MTT assay; format: toxicity, cell-based, HEK-293T; conditions: human
[2] = Selectivity index, ratio of CC50 for cytotoxicity against HEK293T cells assessed as reduction in cell viability by MTT assay to EC50 for antiviral activity against HIV1 VSV-G pseudotyped virus infected in human HEK293T cells assessed as inhibition of viral growth; format: toxicity, cell-based; conditions: read-out: Ratio CC50/EC50
[3] = tested on: Human immunodeficiency virus 1; test: Antiviral activity against HIV1 VSV-G pseudotyped virus infected in human HEK293T cells assessed as inhibition of viral growth preincubated for 3 hrs followed by washout and further incubated with compound for 72 hrs by luciferase assay; format: functional, organism-based; conditions: Human immunodeficiency virus 1, HEK-293T

SMILES: COc1nc(N)c2ncn([C@@H]3O[C@@](CO)(N=[N+]=[N-])[C@@H](O)[C@@H]3F)c2n1
- CC50 [1]: > 100 µM
- selectivity ratio [2]: > 22400
- EC50 [3]: 4.46 nM
